Reference: patent US9458110B2, “Phenylpyrazole derivatives as potent ROCK1 and ROCK2 inhibitors” (BRISTOL-MYERS SQUIBB COMPANY, priority 2013, dated 2016)

Key:
[1] = target: ROCK1 (Homo sapiens (Human), UniProt Q13464); assay: ROCK assay (Caliper LABCHIP peptide phosphorylation), ROCK1; type: biochemical; settings: 5 μM ATP, 1.5 μM peptide substrate;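 also: Read-out is separation of phosphorylated from unphosphorylated peptide, with kinase activity inhibition computed at every concentration of a dose-response series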
Chain of ROCK1 (Q13464 whole entry, species assumed): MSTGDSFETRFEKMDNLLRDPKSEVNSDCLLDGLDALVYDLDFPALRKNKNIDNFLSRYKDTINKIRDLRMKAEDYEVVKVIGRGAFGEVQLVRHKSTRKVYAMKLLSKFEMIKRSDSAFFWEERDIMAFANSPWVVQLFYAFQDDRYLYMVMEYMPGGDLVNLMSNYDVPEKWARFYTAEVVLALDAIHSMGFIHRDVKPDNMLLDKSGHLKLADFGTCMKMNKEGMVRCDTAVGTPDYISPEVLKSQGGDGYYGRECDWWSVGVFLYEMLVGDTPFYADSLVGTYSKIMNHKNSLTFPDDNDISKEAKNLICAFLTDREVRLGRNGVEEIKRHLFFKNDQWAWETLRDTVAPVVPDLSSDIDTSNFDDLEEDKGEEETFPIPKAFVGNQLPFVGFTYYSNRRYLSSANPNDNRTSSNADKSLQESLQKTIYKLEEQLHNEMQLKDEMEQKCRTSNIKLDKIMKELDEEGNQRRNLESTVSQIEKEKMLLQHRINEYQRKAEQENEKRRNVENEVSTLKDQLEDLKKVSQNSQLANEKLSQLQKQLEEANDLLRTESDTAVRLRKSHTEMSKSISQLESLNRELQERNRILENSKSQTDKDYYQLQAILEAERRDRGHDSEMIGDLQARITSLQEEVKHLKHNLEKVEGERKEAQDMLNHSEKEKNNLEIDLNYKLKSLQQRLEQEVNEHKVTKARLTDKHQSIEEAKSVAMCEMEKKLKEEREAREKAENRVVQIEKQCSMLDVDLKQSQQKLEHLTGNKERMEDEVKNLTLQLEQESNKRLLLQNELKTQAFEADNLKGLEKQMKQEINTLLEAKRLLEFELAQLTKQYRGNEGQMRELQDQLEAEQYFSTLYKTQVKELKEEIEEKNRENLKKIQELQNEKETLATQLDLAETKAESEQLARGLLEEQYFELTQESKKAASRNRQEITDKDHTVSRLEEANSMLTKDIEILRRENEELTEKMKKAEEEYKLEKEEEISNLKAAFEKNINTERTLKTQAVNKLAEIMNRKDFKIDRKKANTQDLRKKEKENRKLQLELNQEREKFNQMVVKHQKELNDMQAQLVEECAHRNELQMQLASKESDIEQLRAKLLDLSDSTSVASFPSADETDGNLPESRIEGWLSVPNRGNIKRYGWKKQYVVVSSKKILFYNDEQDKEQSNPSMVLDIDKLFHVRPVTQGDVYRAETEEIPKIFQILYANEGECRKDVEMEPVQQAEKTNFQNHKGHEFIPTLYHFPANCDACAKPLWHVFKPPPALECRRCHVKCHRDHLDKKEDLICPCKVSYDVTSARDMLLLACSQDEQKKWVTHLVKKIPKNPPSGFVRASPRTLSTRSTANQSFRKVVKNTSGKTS

[2] = target: ROCK2 (Homo sapiens (Human), UniProt O75116); assay: ROCK assay (Caliper LABCHIP peptide phosphorylation), ROCK2; type: biochemical; settings: 5 μM ATP, 1.5 μM peptide substrate;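 also: reaction stopped with EDTA, then phosphorylated and unphosphorylated peptide resolved by microfluidic electrophoresis, kinase inhibition computed at each compound concentration in dose-response series, DMSO under 2%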
Chain of ROCK2 (O75116 whole entry, species assumed): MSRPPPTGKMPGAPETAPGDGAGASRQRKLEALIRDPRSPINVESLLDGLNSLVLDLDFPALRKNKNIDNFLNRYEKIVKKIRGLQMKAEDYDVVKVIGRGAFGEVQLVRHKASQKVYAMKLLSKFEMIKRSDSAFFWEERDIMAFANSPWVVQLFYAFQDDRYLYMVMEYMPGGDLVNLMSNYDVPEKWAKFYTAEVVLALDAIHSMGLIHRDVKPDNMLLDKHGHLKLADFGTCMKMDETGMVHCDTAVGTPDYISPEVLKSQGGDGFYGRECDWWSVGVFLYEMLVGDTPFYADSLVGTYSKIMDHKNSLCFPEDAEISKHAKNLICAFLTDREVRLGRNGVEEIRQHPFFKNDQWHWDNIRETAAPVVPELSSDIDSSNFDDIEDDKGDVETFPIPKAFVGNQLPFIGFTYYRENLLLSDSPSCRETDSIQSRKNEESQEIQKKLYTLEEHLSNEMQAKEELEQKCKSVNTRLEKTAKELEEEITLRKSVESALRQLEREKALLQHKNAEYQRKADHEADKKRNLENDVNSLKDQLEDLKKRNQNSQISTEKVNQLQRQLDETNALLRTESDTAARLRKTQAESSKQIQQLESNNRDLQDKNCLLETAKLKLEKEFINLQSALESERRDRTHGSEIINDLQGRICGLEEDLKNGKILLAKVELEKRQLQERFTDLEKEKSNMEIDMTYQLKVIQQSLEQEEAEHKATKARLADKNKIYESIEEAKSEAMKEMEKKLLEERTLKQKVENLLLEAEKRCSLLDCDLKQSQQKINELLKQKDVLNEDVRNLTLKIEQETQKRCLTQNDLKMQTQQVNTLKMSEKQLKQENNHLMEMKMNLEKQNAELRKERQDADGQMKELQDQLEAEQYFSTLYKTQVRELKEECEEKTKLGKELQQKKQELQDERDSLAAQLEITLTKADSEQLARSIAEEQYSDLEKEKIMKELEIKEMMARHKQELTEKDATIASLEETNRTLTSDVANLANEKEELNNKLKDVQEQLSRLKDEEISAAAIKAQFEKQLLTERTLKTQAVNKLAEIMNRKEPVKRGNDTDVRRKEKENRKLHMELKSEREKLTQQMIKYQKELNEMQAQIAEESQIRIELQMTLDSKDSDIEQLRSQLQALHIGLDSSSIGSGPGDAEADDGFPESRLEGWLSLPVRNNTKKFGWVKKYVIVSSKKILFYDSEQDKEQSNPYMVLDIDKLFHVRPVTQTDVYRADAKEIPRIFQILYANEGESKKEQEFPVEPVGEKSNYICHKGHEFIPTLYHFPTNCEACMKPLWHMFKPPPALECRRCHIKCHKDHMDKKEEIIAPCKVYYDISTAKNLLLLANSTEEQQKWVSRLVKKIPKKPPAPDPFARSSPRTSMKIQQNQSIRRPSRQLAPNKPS

| Compound | IC50 [1] | IC50 [2] |
| --- | --- | --- |
| COc1cc(C(=O)N[C@H](C)c2ccc3ccccc3c2)ccc1-c1cn[nH]c1 [Example 74, (R)-3-methoxy-N-(1-(naphthalen-2-yl)ethyl)-4-(1H-pyrazol-4-yl)benzamide] | 36.3 nM | 9.18 nM |
| COc1cc(C(=O)NCc2cc(F)c(F)c(F)c2)ccc1-c1cn[nH]c1 [Example 75, 3-methoxy-4-(1H-pyrazol-4-yl)-N-(3,4,5-trifluorobenzyl) benzamide] | 34.1 nM | 8.26 nM |
| COc1cc(C(=O)NCc2ccc3nc(N)sc3c2)ccc1-c1cn[nH]c1 [Example 77, N-((2-aminobenzo[d]thiazol-6-yl)methyl)-3-methoxy-4-(1H-pyrazol-4-yl)benzamide] | 1240 nM | 401 nM |
| COc1cc(C(=O)NCc2cccc(OC(F)F)c2)ccc1-c1cn[nH]c1 [Example 78, N-(3-(difluoro-methoxy)benzyl)-3-methoxy-4-(1H-pyrazol-4-yl)benzamide] | 21.8 nM | 3.94 nM |
| COc1cc(C(=O)NCc2cccc(C(=O)NC3(C)CC3)c2)ccc1-c1cn[nH]c1 [Example 83, 3-methoxy-N-(3-((1-methylcyclopropyl)carbamoyl)benzyl)-4-(1H-pyrazol-4-yl)benzamide] | 3.16 nM | 1.14 nM |
| Cc1cc(C(=O)N[C@H](C)c2ccccc2)ccc1-c1cn[nH]c1 [Example 84, 3-Methyl-N-[(1R)-1-phenylethyl]-4-(1H-pyrazol-4-yl)benzamide] | 11 nM | 3.51 nM |
| COc1cc(C(=O)NCc2cccc(CN(C)C)c2)ccc1-c1cn[nH]c1 [Example 85, N-({3-[(dimethylamino)methyl]phenyl}methyl)-3-methoxy-4-(1H-pyrazol-4-yl)benzamide] | 2510 nM | 474 nM |
| COc1cc(C(=O)NCc2cccc(N3CCCC3)c2)ccc1-c1cn[nH]c1 [Example 87, 3-methoxy-4-(1H-pyrazol-4-yl)-N-{[3-(pyrrolidin-1-yl)phenyl]methyl} benzamide] | 724 nM | 130 nM |
| COc1cc(C(=O)NC(CCO)c2ccccc2)ccc1-c1cn[nH]c1 (centres unmarked) [Example 90, N-(3-hydroxy-1-phenylpropyl)-3-methoxy-4-(1H-pyrazol-4-yl)benzamide] | 12.4 nM | 6.4 nM |
| COc1cc(C(=O)NCc2cc(F)cc(F)c2F)ccc1-c1cn[nH]c1 [Example 91, 3-methoxy-4-(1H-pyrazol-4-yl)-N-[(2,3,5-trifluorophenyl)methyl] benzamide] | 38.5 nM | 7.66 nM |
| COc1cc(C(=O)NCc2cccc(NS(C)(=O)=O)c2)ccc1-c1cn[nH]c1 [Example 94, N-[(3-methanesulfon-amidophenyl)methyl]-3-methoxy-4-(1H-pyrazol-4-yl)benzamide] | 24.6 nM | 6.33 nM |
| COc1cc(C(=O)NCc2cccc(N(C)C)c2)ccc1-c1cn[nH]c1 [Example 95, N-{[3-(dimethylamino)phenyl]methyl}-3-methoxy-4-(1H-pyrazol-4-yl)benzamide] | 371 nM | 47.6 nM |
| COc1cc(C(=O)NCc2cccc(N(C)C(C)=O)c2)ccc1-c1cn[nH]c1 [Example 100, 3-methoxy-N-{[3-(N-methyl-acetamido)phenyl]methyl}-4-(1H-pyrazol-4-yl)benzamide] | 4080 nM | 299 nM |
| COc1cc(C(=O)NC(C)c2ccc3c(c2)OCCO3)ccc1-c1cn[nH]c1 (centres unmarked) [Example 101, N-[1-(2,3-dihydro-1,4-benzodioxin-6-yl)ethyl]-3-methoxy-4-(1H-pyrazol-4-yl)benzamide] | 742 nM | 189 nM |
| COc1cc(C(=O)NCc2ccc3[nH]c(=O)[nH]c3c2)ccc1-c1cn[nH]c1 [Example 102, 3-methoxy-N-[(2-oxo-2,3-dihydro-1H-1,3-benzodiazol-5-yl)methyl]-4-(1H-pyrazol-4-yl)benzamide] | 3770 nM | 662 nM |
| COc1cc(C(=O)NCc2ccc3sccc3c2)ccc1-c1cn[nH]c1 [Example 104, N-(1-benzothiophen-5-ylmethyl)-3-methoxy-4-(1H-pyrazol-4-yl)benzamide] | 24.9 nM | 9.44 nM |
| COc1cc(C(=O)N[C@H](C)c2ccc3c(c2)CCO3)ccc1-c1cn[nH]c1 [Example 106, N-[(1R)-1-(2,3-dihydro-1-benzofuran-5-yl)ethyl]-3-methoxy-4-(1H-pyrazol-4-yl)benzamide] | 50.1 nM | 27 nM |
| COC(=O)c1cccc(CNC(=O)c2ccc(-c3cn[nH]c3)c(C)c2)c1 [Example 108, methyl 3-({[3-methyl-4-(1H-pyrazol-4-yl)phenyl] formamido}methyl) benzoate] | 13.9 nM | 2.61 nM |
| COc1cccc([C@@H](C)NC(=O)c2ccc(-c3cn[nH]c3)cc2Cl)c1 [Example 109, 2-chloro-N-[(1R)-1-(3-methoxyphenyl)ethyl]-4-(1H-pyrazol-4-yl)benzamide] | 529 nM | 144 nM |
| COc1cc(C(=O)N[C@H](CO)[C@H](O)c2ccccc2)ccc1-c1cn[nH]c1 [Example 112, N-[(1R,2R)-1,3-dihydroxy-1-phenylpropan-2-yl]-3-methoxy-4-(1H-pyrazol-4-yl)benzamide] | 23.9 nM | 2.72 nM |
| COC[C@H](NC(=O)c1ccc(-c2cn[nH]c2)c(OC)c1)[C@@H](O)c1ccccc1 [Example 113, N-[(1S,2S)-1-hydroxy-3-methoxy-1-phenylpropan-2-yl]-3-methoxy-4-(1H-pyrazol-4-yl)benzamide] | 602 nM | 330 nM |
| COc1cccc(CCNC(=O)c2ccc(-c3cn[nH]c3)c(OC)c2)c1 [Example 114, 3-methoxy-N-[2-(3-methoxyphenyl)ethyl]-4-(1H-pyrazol-4-yl)benzamide] | 92.9 nM | 59.6 nM |
| COc1cc(C(=O)N[C@@H](Cc2ccccc2)C(N)=O)ccc1-c1cn[nH]c1 [Example 115, (2S)-2-{[3-methoxy-4-(1H-pyrazol-4-yl)phenyl] formamido}-3-phenyl-propanamide] | 37.4 nM | 14 nM |
| COc1cccc(C2(NC(=O)c3ccc(-c4cn[nH]c4)c(OC)c3)CC2)c1 [Example 116, 3-methoxy-N-[1-(3-methoxyphenyl)cyclopropyl]-4-(1H-pyrazol-4-yl)benzamide] | 55.2 nM | 17.9 nM |
| COc1cc(C(=O)NC[C@H](C)c2ccccc2)ccc1-c1cn[nH]c1 [Example 117, 3-methoxy-N-[(2R)-2-phenylpropyl]-4-(1H-pyrazol-4-yl)benzamide] | 50.5 nM | 30.2 nM |
| COc1cc(C(=O)NCC(C#N)c2ccccc2)ccc1-c1cn[nH]c1 (centres unmarked) [Example 118, N-(2-cyano-2-phenylethyl)-3-methoxy-4-(1H-pyrazol-4-yl)benzamide] | 38.7 nM | 27.7 nM |
| COc1cc(C(=O)N[C@@H](Cc2ccc(F)cc2)C(=O)N(C)C)ccc1-c1cn[nH]c1 [Example 119, (2S)-3-(4-fluorophenyl)-2-{[3-methoxy-4-(1H-pyrazol-4-yl)phenyl] formamido}-N,N-dimethyl-propanamide] | 2270 nM | 1010 nM |

Next, values leading:

| IC50 [1] | IC50 [2] | Compound |
| --- | --- | --- |
| 7.72 nM | 2.2 nM | COc1cc(C(=O)NCc2cc(Cl)ccc2Cl)ccc1-c1cn[nH]c1 [Example 76, N-(2,5-dichlorobenzyl)-3-methoxy-4-(1H-pyrazol-4-yl)benzamide] |
| 22.8 nM | 7.96 nM | COc1cc(C(=O)NCc2ccc(F)c(F)c2)ccc1-c1cn[nH]c1 [Example 79, N-(3,4-difluorobenzyl)-3-methoxy-4-(1H-pyrazol-4-yl)benzamide] |
| 13.2 nM | 2.97 nM | COc1cc(C(=O)NCc2c(F)ccc(C)c2F)ccc1-c1cn[nH]c1 [Example 80, N-(2,6-difluoro-3-methylbenzyl)-3-methoxy-4-(1H-pyrazol-4-yl)benzamide] |
| 9.89 nM | 4.39 nM | COc1cc(C(=O)NCc2cc(F)ccc2Cl)ccc1-c1cn[nH]c1 [Example 82, N-(2-chloro-5-fluorobenzyl)-3-methoxy-4-(1H-pyrazol-4-yl)benzamide] |
| 41.8 nM | 7.99 nM | COc1cc(C(=O)NCc2cccc3[nH]ncc23)ccc1-c1cn[nH]c1 [Example 86, N-(1H-indazol-4-ylmethyl)-3-methoxy-4-(1H-pyrazol-4-yl)benzamide] |
| 8.46 nM | 3.99 nM | COc1cc(C(=O)NCc2c(F)ccc(F)c2Cl)ccc1-c1cn[nH]c1 [Example 88, N-[(2-chloro-3,6-difluorophenyl)methyl]-3-methoxy-4-(1H-pyrazol-4-yl)benzamide] |
| 21.9 nM | 11.1 nM | COc1cc(C(=O)NCc2c(F)cc(F)cc2F)ccc1-c1cn[nH]c1 [Example 89, 3-methoxy-4-(1H-pyrazol-4-yl)-N-[(2,4,6-trifluorophenyl)methyl] benzamide] |
| 99.3 nM | 27.6 nM | COc1cc(C(=O)NCc2ccc(Cl)cc2Cl)ccc1-c1cn[nH]c1 [Example 93, N-[(2,4-dichlorophenyl)methyl]-3-methoxy-4-(1H-pyrazol-4-yl)benzamide] |
| 26 nM | 2.41 nM | COc1cc(CNC(=O)c2ccc(-c3cn[nH]c3)c(OC)c2)ccc1F [Example 96, N-[(4-fluoro-3-methoxyphenyl)methyl]-3-methoxy-4-(1H-pyrazol-4-yl)benzamide] |
| 22.9 nM | 2.46 nM | COc1cc(C(=O)NCc2c(F)ccc(F)c2F)ccc1-c1cn[nH]c1 [Example 97, 3-methoxy-4-(1H-pyrazol-4-yl)-N-[(2,3,6-trifluorophenyl)methyl] benzamide] |
| 17.8 nM | 2.95 nM | COc1cc(C(=O)NCc2c(F)cccc2F)ccc1-c1cn[nH]c1 [Example 98, N-[(2,6-difluorophenyl)methyl]-3-methoxy-4-(1H-pyrazol-4-yl)benzamide] |
| 15.8 nM | 1.36 nM | COc1cc(C(=O)NCc2ccc(Cl)cc2F)ccc1-c1cn[nH]c1 [Example 99, N-[(4-chloro-2-fluorophenyl)methyl]-3-methoxy-4-(1H-pyrazol-4-yl)benzamide] |
| 11.7 nM | 3.59 nM | COc1cc(C(=O)NCc2c(F)cccc2Cl)ccc1-c1cn[nH]c1 [Example 105, N-[(2-chloro-6-fluorophenyl)methyl]-3-methoxy-4-(1H-pyrazol-4-yl)benzamide] |
